Experimental data published in ChEMBL document CHEMBL3112424, “Discovery and optimization of pyrimidone indoline amide PI3Kβ inhibitors for the treatment of phosphatase and tensin homologue (PTEN)-deficient cancers” (J Med Chem, 2014).
In brackets after ≈: the same amount, converted by molar mass.

Legend:
Cytochrome P450 3A4 = Cytochrome P450 3A4 (Homo sapiens, UniProt P08684); test: Inhibition of recombinant human CYP3A4
[1] = target: Phosphatidylinositol 4,5-bisphosphate 3-kinase catalytic subunit alpha isoform (Homo sapiens, UniProt P42336); test: Inhibition of N-terminal ploy-His-tagged human PI3Kalpha expressed in baculovirus-infected sf9 cells using PI(4,5)P2 as substrate after 15 mins by HTRF assay
[2] = Metabolic stability in human liver microsomes at 5 uM after 20 mins
[3] = target: Phosphatidylinositol 4,5-bisphosphate 3-kinase catalytic subunit gamma isoform (Homo sapiens, UniProt P48736); test: Inhibition of C-terminal ploy-His-tagged human PI3Kgamma expressed in baculovirus-infected sf9 cells using PI(4,5)P2 as substrate after 15 mins by HTRF assay
[4] = Solubility of the compound in phosphate buffer at pH 7.4 by HPLC analysis; conditions: phosphate buffer
[5] = target: T1, Phosphatidylinositol 4,5-bisphosphate 3-kinase catalytic subunit delta isoform (Homo sapiens, UniProt O00329); test: Inhibition of N-terminal ploy-His-tagged human PI3Kdelta expressed in baculovirus-infected sf9 cells using PI(4,5)P2 as substrate after 15 mins by HTRF assay
T1 sequence (O00329 whole entry): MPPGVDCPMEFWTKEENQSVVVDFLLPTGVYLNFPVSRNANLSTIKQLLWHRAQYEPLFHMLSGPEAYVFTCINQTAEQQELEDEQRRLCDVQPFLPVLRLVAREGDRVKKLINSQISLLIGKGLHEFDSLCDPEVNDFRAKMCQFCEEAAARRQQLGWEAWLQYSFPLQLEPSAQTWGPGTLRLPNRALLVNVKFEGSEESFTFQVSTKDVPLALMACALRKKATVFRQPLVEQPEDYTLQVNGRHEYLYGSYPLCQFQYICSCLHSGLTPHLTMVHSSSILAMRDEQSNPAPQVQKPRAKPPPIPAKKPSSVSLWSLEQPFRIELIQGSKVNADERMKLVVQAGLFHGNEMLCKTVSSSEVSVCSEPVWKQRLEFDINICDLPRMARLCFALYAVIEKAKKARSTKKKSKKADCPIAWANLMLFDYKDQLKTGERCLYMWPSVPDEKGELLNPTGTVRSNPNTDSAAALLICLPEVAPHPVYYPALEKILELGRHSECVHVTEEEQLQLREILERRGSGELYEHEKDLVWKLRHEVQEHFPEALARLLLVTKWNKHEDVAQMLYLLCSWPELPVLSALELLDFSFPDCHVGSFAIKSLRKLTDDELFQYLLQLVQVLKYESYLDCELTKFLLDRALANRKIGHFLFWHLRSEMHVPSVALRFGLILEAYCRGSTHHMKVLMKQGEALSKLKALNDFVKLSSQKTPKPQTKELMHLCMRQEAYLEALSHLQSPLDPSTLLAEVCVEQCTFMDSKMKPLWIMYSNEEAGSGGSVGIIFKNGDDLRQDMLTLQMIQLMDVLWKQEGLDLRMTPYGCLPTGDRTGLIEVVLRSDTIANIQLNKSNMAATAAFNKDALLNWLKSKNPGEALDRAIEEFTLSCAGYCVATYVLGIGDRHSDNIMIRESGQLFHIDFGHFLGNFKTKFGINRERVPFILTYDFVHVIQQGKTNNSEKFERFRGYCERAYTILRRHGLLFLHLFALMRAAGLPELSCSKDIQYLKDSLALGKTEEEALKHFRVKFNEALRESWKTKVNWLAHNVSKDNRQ

[6] = target: T2, Phosphatidylinositol 4,5-bisphosphate 3-kinase catalytic subunit beta isoform (Homo sapiens, UniProt P42338); test: Inhibition of N-terminal ploy-His-tagged human PI3Kbeta expressed in baculovirus-infected sf21 cells using PI(4,5)P2 as substrate after 15 mins by HTRF assay
[7] = target: T2, Phosphatidylinositol 4,5-bisphosphate 3-kinase catalytic subunit beta isoform; test: Inhibition of PI3Kbeta-mediated Akt phosphorylation at S473 in PTEN-deficient human PC3 cells after 0.5 to 2 hrs by Immunoblotting assay; format: cell-based, PC-3
[8] = Apparent permeability in human Caco2 cells at 5 uM after 20 mins; conditions: Caco-2
[9] = Metabolic stability in mouse liver microsomes at 5 uM after 20 mins
[10] = Lipophilicity, log D of the compound; format: physicochemical; conditions: octanol/water
[11] = Dissociation constant, pKa of the compound; format: physicochemical
PC-3 = test: Antitumor activity against po dosed PTEN-deficient human PC3 cells xenografted in nude mouse assessed as tumor growth inhibition administered as qd measured for 52 days; format: functional

Chain of Phosphatidylinositol 4,5-bisphosphate 3-kinase catalytic subunit gamma isoform (P48736 whole entry, canonical isoform): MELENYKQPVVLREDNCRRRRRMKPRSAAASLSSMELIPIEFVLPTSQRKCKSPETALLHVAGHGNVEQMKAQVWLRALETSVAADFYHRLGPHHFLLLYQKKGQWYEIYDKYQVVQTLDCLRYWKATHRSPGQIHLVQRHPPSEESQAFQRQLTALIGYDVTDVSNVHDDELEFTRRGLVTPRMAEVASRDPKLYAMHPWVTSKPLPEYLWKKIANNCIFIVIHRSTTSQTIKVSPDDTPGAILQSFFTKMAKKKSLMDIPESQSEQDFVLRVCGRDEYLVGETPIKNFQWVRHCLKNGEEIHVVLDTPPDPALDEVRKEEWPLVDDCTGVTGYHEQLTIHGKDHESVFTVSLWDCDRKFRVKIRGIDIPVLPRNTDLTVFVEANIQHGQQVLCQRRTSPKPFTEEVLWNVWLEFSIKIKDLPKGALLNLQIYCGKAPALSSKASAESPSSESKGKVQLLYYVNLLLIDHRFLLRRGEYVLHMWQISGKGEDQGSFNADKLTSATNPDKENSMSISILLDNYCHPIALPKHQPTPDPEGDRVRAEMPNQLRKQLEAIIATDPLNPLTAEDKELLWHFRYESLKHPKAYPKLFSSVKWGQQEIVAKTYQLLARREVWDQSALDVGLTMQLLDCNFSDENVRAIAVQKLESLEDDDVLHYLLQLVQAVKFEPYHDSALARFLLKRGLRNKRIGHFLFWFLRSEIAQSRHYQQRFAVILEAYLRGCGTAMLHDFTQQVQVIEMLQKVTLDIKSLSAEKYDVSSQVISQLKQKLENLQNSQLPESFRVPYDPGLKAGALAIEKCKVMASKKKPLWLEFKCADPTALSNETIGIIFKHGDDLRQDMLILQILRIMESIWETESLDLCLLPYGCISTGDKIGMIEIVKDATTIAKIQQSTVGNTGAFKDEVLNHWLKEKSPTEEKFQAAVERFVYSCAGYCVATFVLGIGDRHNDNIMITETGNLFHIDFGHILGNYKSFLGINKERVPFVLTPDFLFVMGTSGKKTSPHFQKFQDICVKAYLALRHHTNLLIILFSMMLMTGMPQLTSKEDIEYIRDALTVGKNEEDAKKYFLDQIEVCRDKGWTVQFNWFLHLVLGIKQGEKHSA
Chain of Cytochrome P450 3A4 (P08684 whole entry, canonical isoform): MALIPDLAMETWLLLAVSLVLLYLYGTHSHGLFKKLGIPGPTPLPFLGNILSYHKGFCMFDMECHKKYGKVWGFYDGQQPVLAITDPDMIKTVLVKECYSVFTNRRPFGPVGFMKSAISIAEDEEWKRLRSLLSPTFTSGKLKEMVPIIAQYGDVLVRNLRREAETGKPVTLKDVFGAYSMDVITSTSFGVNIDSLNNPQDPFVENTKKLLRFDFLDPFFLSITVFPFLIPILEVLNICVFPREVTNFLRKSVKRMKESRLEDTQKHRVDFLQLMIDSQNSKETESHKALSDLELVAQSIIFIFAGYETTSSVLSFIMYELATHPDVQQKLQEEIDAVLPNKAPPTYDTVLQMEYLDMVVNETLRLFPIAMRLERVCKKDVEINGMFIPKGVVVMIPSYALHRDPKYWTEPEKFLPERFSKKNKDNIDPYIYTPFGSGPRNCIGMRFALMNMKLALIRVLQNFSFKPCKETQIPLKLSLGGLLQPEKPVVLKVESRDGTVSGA
Chain of Phosphatidylinositol 4,5-bisphosphate 3-kinase catalytic subunit alpha isoform (P42336 whole entry, canonical isoform): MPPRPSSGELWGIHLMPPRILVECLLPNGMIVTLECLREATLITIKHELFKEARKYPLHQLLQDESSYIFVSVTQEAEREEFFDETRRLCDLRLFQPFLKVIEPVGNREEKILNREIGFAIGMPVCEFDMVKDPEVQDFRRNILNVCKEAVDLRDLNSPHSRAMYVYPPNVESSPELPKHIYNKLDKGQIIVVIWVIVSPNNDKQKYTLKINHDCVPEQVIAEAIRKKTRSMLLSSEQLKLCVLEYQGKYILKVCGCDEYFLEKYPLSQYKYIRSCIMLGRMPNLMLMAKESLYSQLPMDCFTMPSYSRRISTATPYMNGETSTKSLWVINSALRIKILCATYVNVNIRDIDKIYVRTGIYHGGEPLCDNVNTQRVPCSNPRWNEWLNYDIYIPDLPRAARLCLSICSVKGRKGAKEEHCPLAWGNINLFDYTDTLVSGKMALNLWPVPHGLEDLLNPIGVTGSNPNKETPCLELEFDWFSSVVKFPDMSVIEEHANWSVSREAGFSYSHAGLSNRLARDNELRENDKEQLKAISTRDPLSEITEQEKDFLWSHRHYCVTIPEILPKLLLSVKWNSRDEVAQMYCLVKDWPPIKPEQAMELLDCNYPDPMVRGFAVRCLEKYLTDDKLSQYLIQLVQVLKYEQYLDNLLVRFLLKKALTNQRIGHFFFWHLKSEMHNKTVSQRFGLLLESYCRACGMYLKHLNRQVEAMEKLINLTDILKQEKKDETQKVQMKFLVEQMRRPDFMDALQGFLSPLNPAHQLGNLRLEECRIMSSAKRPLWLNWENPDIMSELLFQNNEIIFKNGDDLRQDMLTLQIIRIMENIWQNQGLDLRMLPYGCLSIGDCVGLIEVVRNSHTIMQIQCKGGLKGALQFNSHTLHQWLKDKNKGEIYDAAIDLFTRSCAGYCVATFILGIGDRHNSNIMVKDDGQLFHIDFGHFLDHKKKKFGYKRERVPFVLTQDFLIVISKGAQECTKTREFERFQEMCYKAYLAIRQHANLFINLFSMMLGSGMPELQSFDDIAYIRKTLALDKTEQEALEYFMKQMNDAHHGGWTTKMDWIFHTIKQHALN
T2 sequence (P42338 whole entry, canonical isoform): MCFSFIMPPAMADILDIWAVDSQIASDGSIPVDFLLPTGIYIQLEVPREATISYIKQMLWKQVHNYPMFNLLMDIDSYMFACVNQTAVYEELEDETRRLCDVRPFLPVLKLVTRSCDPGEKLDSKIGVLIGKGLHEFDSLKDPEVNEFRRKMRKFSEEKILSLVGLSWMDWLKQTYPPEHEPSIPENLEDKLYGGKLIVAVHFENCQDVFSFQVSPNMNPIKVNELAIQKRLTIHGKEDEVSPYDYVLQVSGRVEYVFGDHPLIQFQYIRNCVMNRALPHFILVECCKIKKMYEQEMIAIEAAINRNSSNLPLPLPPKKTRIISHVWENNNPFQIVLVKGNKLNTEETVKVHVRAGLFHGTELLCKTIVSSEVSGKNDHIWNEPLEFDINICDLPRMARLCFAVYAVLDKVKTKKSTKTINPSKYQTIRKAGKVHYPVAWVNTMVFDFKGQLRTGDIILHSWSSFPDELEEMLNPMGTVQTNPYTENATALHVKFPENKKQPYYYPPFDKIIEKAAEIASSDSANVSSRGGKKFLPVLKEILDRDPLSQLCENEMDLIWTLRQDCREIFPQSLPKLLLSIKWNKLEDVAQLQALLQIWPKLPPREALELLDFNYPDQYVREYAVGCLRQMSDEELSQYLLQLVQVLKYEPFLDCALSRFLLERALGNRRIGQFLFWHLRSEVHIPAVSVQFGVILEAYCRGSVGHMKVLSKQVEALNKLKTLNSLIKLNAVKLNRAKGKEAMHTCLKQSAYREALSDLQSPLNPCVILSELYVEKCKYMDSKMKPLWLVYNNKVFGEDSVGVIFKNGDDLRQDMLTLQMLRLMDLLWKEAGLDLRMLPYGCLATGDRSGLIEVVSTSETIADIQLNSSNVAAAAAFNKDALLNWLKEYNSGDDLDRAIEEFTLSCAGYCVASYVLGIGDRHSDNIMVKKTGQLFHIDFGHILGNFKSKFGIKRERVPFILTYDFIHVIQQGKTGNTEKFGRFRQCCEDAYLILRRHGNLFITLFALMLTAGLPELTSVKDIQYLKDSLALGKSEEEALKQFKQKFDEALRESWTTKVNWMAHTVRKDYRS

Row | Structure (SMILES) | IC50 (Cytochrome P450 3A4) [nM] | IC50 [1] [nM] | remaining at 20 min, 5 µM ([2]; liver microsomes) [%] | IC50 [3] [nM] | solubility [4] [µM] | IC50 [5] [nM] | IC50 [6] [nM] | IC50 [7] [nM] | Papp at 20 min, 5 µM [8] [×10⁻⁶ cm/s] | remaining at 20 min, 5 µM ([9]; liver microsomes) [%] | logD [10] | pKa [11] | remaining at 20 min, 5 µM ([2]; microsomes) [%] | remaining at 20 min, 5 µM ([9]; microsomes) [%] | T/C (PC-3) [%]
1 | O=C(Cc1nc(N2CCOCC2)cc(=O)[nH]1)N1CCc2cc(Cl)ccc21 | 40000 | 2020 | 34 | 10000 | 3 (≈ 1.12 µg/mL) | 4130 | 79 | 124 | 1.4 | 36 | – | – | – | – | –
2 | CC1(C)CN(C(=O)Cc2nc(N3CCOCC3)cc(=O)[nH]2)c2ccccc21 | 40000 | 5420 | 83 | – | 46 (≈ 16.9 µg/mL) | 278 | 17 | 28 | 4 | 87 | – | – | – | – | –
3 | O=C(Cc1nc(N2CCOCC2)cc(=O)[nH]1)N1CCc2c(F)cccc21 | – | 2450 | – | 6220 | – | 122 | – | – | – | – | – | – | 19 | 9 | –
4 | O=C(Cc1nc(N2CCOCC2)cc(=O)[nH]1)N1CCc2c1cccc2C(F)(F)F | 40000 | 390 | 24 | 8400 | 12 (≈ 4.9 µg/mL) | 98 | 10 | 9 | 4.6 | 13 | – | – | – | – | –
5 | C[C@H]1c2cccc(O)c2C(=O)C2=C(O)[C@]3(O)C(=O)C(C(N)=O)=C(O)[C@@H](N(C)C)[C@@H]3[C@@H](O)[C@@H]21.O [DOXYCYCLINE] | – | – | – | – | – | – | – | – | – | – | – | – | – | – | 49
6 | CC1Cc2ccccc2N1C(=O)Cc1nc(N2CCOCC2)cc(=O)[nH]1 (racemic) | – | – | – | 9150 | 2750 (≈ 976 µg/mL) | 36 | 4 | 6 | – | – | – | – | – | – | –
7 | O=C(Cc1nc(N2CCOCC2)cc(=O)[nH]1)N1CCc2c(Br)cccc21 | 40000 | 85 | 24 | 3980 | 2 (≈ 0.839 µg/mL) | 55 | 6 | 1 | 4.2 | 22 | – | – | – | – | –
8 | C[C@@H]1Cc2ccccc2N1C(=O)Cc1nc(N2CCOCC2)cc(=O)[nH]1 | 40000 | – | 43 | 3320 | 2500 (≈ 885 µg/mL) | 6 | 6 | 12 | 5.1 | 52 | – | – | – | – | –
9 | CC1CN(C(=O)Cc2nc(N3CCOCC3)cc(=O)[nH]2)c2ccccc21 (racemic) | 40000 | 2260 | 47 | 10000 | 3 (≈ 1.06 µg/mL) | 87 | 22 | 13 | 7.5 | 40 | – | – | – | – | –
10 | O=C(Cc1nc(N2CCOCC2)cc(=O)[nH]1)N1CCc2c(-c3ccccn3)cccc21 | 11000 | 2380 | 36 | 8970 | 110 (≈ 45.9 µg/mL) | 106 | 98 | 66 | 4.2 | 40 | – | – | – | – | –
11 | Cn1c(Cc2nc(N3CCOCC3)cc(=O)[nH]2)nc2ccccc21 | – | – | – | 10000 | – | – | – | – | – | – | – | – | – | – | –
12 | COc1cccc2c1CCN2C(=O)Cc1nc(N2CCOCC2)cc(=O)[nH]1 | 40000 | 2420 | 0 | – | 5 (≈ 1.85 µg/mL) | 648 | 41 | 60 | 0.6 | 70 | – | – | – | – | –
13 | CC1(C)Cc2ccccc2N1C(=O)Cc1nc(N2CCOCC2)cc(=O)[nH]1 | – | – | – | – | 46 (≈ 16.9 µg/mL) | 580 | 102 | 78 | – | – | – | – | – | – | –
14 | Cn1c(CC(=O)N2CCc3ccccc32)nc(N2CCOCC2)cc1=O | – | 4320 | 14 | – | 36 (≈ 12.8 µg/mL) | 278 | 48 | 20 | 8.3 | 37 | – | – | – | – | –

Continued by falling IC50 [5], values first:

Row | IC50 (Cytochrome P450 3A4) [nM] | IC50 [1] [nM] | remaining at 20 min, 5 µM ([2]; liver microsomes) [%] | IC50 [3] [nM] | solubility [4] [µM] | IC50 [5] [nM] | IC50 [6] [nM] | IC50 [7] [nM] | Papp at 20 min, 5 µM [8] [×10⁻⁶ cm/s] | remaining at 20 min, 5 µM ([9]; liver microsomes) [%] | logD [10] | pKa [11] | Structure (SMILES) | remaining at 20 min, 5 µM ([2]; microsomes) [%] | remaining at 20 min, 5 µM ([9]; microsomes) [%] | T/C (PC-3) [%]
15 | 40000 | 1000 | 48 | 7420 | 12 (≈ 5.09 µg/mL) | 34 | 33 | 54 | 4.1 | 44 | – | – | O=C(Cc1nc(N2CCOCC2)cc(=O)[nH]1)N1CCc2c(OC(F)(F)F)cccc21 | – | – | –
16 | 40000 | 460 | 12 | 10000 | 12 (≈ 4.08 µg/mL) | 28 | 4 | 15 | 5.9 | 21 | – | – | O=C(Cc1nc(N2CCOCC2)cc(=O)[nH]1)N1CCc2ccccc21 | – | – | –
17 | – | 138 | 32 | 1780 | 3 (≈ 1.06 µg/mL) | 24 | 5 | 3 | 7.4 | 60 | – | – | Cc1cccc2c1CCN2C(=O)Cc1nc(N2CCOCC2)cc(=O)[nH]1 | – | – | –
18 | – | 960 | – | 10000 | 1500 (≈ 656 µg/mL) | 22 | 407 | 167 | – | – | – | – | CN1CCN(c2cccc3c2CCN3C(=O)Cc2nc(N3CCOCC3)cc(=O)[nH]2)CC1 | – | – | –
19 | 31000 | 1000 | 43 | 1000 | 69 (≈ 28.8 µg/mL) | 22 | 10 | 94 | 0.4 | 44 | 1.99 | 4.5 | O=C(Cc1nc(N2CCOCC2)cc(=O)[nH]1)N1CCc2c(-c3ccncc3)cccc21 | – | – | –
20 | 40000 | 86 | 18 | 1130 | 5 (≈ 1.87 µg/mL) | 21 | 1 | 3 | 8.8 | 27 | – | – | O=C(Cc1nc(N2CCOCC2)cc(=O)[nH]1)N1CCc2c(Cl)cccc21 | – | – | –
21 | 40000 | 217 | 40 | 1530 | – | 18 | 8 | 24 | 7.1 | 25 | – | – | O=C(Cc1nc(N2CCOCC2)cc(=O)[nH]1)N1CCc2c(-c3ccccc3)cccc21 | – | – | –
22 | 40000 | 426 | 18 | 1590 | 31 (≈ 11.1 µg/mL) | 17 | 4 | 7 | 3 | 14 | – | – | O=C(Cc1nc(N2CCOCC2)cc(=O)[nH]1)N1CCc2cc(F)ccc21 | – | – | –
23 | 40000 | 361 | 29 | 2460 | 60 (≈ 25 µg/mL) | 7 | 17 | 53 | 0.8 | 49 | 1.99 | 4.5 | O=C(Cc1nc(N2CCOCC2)cc(=O)[nH]1)N1CCc2c(-c3cccnc3)cccc21 | – | – | –
24 | – | 660 | – | – | 4420 (≈ 2000 µg/mL) | 2 | 332 | 272 | – | – | – | – | CN1CCN(Cc2cccc3c2CCN3C(=O)Cc2nc(N3CCOCC3)cc(=O)[nH]2)CC1 | – | – | –
